BindingDB's records for doi:10.1021/acsmedchemlett.0c00015 (The Genomics Institute of The Novartis Research Foundation, 2020)

Columns and labels:
[1] = Inhibition of RET (unknown origin) transfected in mouse Ba/F3 cells assessed as reduction in cell viability incubated for 48 hrs by brightglo-luciferase reporter gene assay
[2] = Inhibition of BLK (unknown origin) transfected in mouse Ba/F3 cells assessed as reduction in cell viability incubated for 48 hrs by brightglo-luciferase reporter gene assay
[3] = Inhibition of BMX (unknown origin) transfected in mouse Ba/F3 cells assessed as reduction in cell viability incubated for 48 hrs by brightglo-luciferase reporter gene assay
[4] = Inhibition of FGR (unknown origin) transfected in mouse Ba/F3 cells assessed as reduction in cell viability incubated for 48 hrs by brightglo-luciferase reporter gene assay
[5] = Inhibition of FMS (unknown origin) transfected in mouse Ba/F3 cells assessed as reduction in cell viability incubated for 48 hrs by brightglo-luciferase reporter gene assay
[6] = Inhibition of KDR (unknown origin) transfected in mouse Ba/F3 cells assessed as reduction in cell viability incubated for 48 hrs by brightglo-luciferase reporter gene assay
[7] = Inhibition of KIT (unknown origin) transfected in mouse Ba/F3 cells assessed as reduction in cell viability incubated for 48 hrs by brightglo-luciferase reporter gene assay
[8] = Inhibition of LCK (unknown origin) transfected in mouse Ba/F3 cells assessed as reduction in cell viability incubated for 48 hrs by brightglo-luciferase reporter gene assay
[9] = Inhibition of LYN (unknown origin) transfected in mouse Ba/F3 cells assessed as reduction in cell viability incubated for 48 hrs by brightglo-luciferase reporter gene assay
[10] = Inhibition of MER (unknown origin) transfected in mouse Ba/F3 cells assessed as reduction in cell viability incubated for 48 hrs by brightglo-luciferase reporter gene assay
[11] = Inhibition of MET (unknown origin) transfected in mouse Ba/F3 cells assessed as reduction in cell viability incubated for 48 hrs by brightglo-luciferase reporter gene assay
[12] = Inhibition of RON (unknown origin) transfected in mouse Ba/F3 cells assessed as reduction in cell viability incubated for 48 hrs by brightglo-luciferase reporter gene assay
[13] = Inhibition of ROS (unknown origin) transfected in mouse Ba/F3 cells assessed as reduction in cell viability incubated for 48 hrs by brightglo-luciferase reporter gene assay
[14] = Inhibition of SRC (unknown origin) transfected in mouse Ba/F3 cells assessed as reduction in cell viability incubated for 48 hrs by brightglo-luciferase reporter gene assay
[15] = Inhibition of SYK (unknown origin) transfected in mouse Ba/F3 cells assessed as reduction in cell viability incubated for 48 hrs by brightglo-luciferase reporter gene assay
[16] = Inhibition of FLT1 (unknown origin) transfected in mouse Ba/F3 cells assessed as reduction in cell viability incubated for 48 hrs by brightglo-luciferase reporter gene assay
[17] = Inhibition of FLT3 (unknown origin) transfected in mouse Ba/F3 cells assessed as reduction in cell viability incubated for 48 hrs by brightglo-luciferase reporter gene assay
[18] = Inhibition of INSR (unknown origin) transfected in mouse Ba/F3 cells assessed as reduction in cell viability incubated for 48 hrs by brightglo-luciferase reporter gene assay
[19] = Inhibition of JAK2 (unknown origin) transfected in mouse Ba/F3 cells assessed as reduction in cell viability incubated for 48 hrs by brightglo-luciferase reporter gene assay
[20] = Inhibition of TIE1 (unknown origin) transfected in mouse Ba/F3 cells assessed as reduction in cell viability incubated for 48 hrs by brightglo-luciferase reporter gene assay
[21] = Inhibition of TRKA (unknown origin) transfected in mouse Ba/F3 cells assessed as reduction in cell viability incubated for 48 hrs by brightglo-luciferase reporter gene assay
[22] = Inhibition of TRKB (unknown origin) transfected in mouse Ba/F3 cells assessed as reduction in cell viability incubated for 48 hrs by brightglo-luciferase reporter gene assay
[23] = Inhibition of TRKC (unknown origin) transfected in mouse Ba/F3 cells assessed as reduction in cell viability incubated for 48 hrs by brightglo-luciferase reporter gene assay
[24] = Inhibition of FGFR1 (unknown origin) transfected in mouse Ba/F3 cells assessed as reduction in cell viability incubated for 48 hrs by brightglo-luciferase reporter gene assay
[25] = Inhibition of FGFR2 (unknown origin) transfected in mouse Ba/F3 cells assessed as reduction in cell viability incubated for 48 hrs by brightglo-luciferase reporter gene assay
[26] = Inhibition of FGFR3 (unknown origin) transfected in mouse Ba/F3 cells assessed as reduction in cell viability incubated for 48 hrs by brightglo-luciferase reporter gene assay
[27] = Inhibition of FGFR4 (unknown origin) transfected in mouse Ba/F3 cells assessed as reduction in cell viability incubated for 48 hrs by brightglo-luciferase reporter gene assay
[28] = Inhibition of IGF1R (unknown origin) transfected in mouse Ba/F3 cells assessed as reduction in cell viability incubated for 48 hrs by brightglo-luciferase reporter gene assay
[29] = Inhibition of TYRO3 (unknown origin) transfected in mouse Ba/F3 cells assessed as reduction in cell viability incubated for 48 hrs by brightglo-luciferase reporter gene assay
[30] = Inhibition of ZAP70 (unknown origin) transfected in mouse Ba/F3 cells assessed as reduction in cell viability incubated for 48 hrs by brightglo-luciferase reporter gene assay
[31] = Inhibition of NPM/ALK (unknown origin) transfected in mouse Ba/F3 cells assessed as reduction in cell viability incubated for 48 hrs by brightglo-luciferase reporter gene assay
[32] = Inhibition of KIF5B-RET (unknown origin) transfected in mouse Ba/F3 cells assessed as reduction in cell viability incubated for 48 hrs by brightglo-luciferase reporter gene assay
[33] = Inhibition of PDGFRbeta (unknown origin) transfected in mouse Ba/F3 cells assessed as reduction in cell viability incubated for 48 hrs by brightglo-luciferase reporter gene assay
[34] = Inhibition of PDGFRalpha (unknown origin) transfected in mouse Ba/F3 cells assessed as reduction in cell viability incubated for 48 hrs by brightglo-luciferase reporter gene assay
[35] = Inhibition of KIF5B-RET V804M mutant (unknown origin) transfected in mouse Ba/F3 cells assessed as reduction in cell viability incubated for 48 hrs by brightglo-luciferase reporter gene assay

In the case of `COc1ccc(-c2cnn3c(N)c(-c4nccs4)c(OC4CCN(C)CC4)nc23)cc1OC`, the IC50 [1] is reported as 0.21 µM, the IC50 [2] is reported as 8.2 µM and the IC50 [3] is reported as > 11 µM. It also gave an IC50 [4] of 4.1 µM, an IC50 [5] of 4.3 µM and an IC50 [6] of 0.24 µM. The IC50 [7] was 1.6 µM, the IC50 [8] was 1.2 µM and the IC50 [9] was 1.5 µM. The IC50 [10] was > 8.7 µM, the IC50 [11] was > 11 µM and the IC50 [12] was > 11 µM. For the same compound, the IC50 [13] was > 11 µM, the IC50 [14] was 2.4 µM and the IC50 [15] was > 11 µM. For the same compound, the IC50 [16] was > 11 µM, the IC50 [17] was > 11 µM and the IC50 [18] was > 10 µM. For the same compound, the IC50 [19] was 3.8 µM, the IC50 [20] was > 11 µM and the IC50 [21] was > 11 µM. It also gave an IC50 [22] of 0.77 µM, an IC50 [23] of 0.5 µM and an IC50 [24] of 3.1 µM. The IC50 [25] was 3 µM, the IC50 [26] was 4.9 µM and the IC50 [27] was 4.4 µM. The IC50 [28] was 8.7 µM, the IC50 [29] was > 11 µM and the IC50 [30] was > 11 µM. For the same compound, the IC50 [31] was > 11 µM, the IC50 [32] was 0.12 µM and the IC50 [33] was 0.041 µM. For the same compound, the IC50 [34] was 0.009 µM and the IC50 [35] was 0.61 µM.
